Like-named read-outs stand apart in the source and are kept apart here.
Key:
[1] = system: rat peritoneal mast cells; assay: Mast cell stabilization test: histamine release inhibition; format: cell-based, Wistar male rats; settings: for inhibition at 100 µM: Rattus norvegicus, Mast cell, 100 µM of sodium cromoglycate
Protocol: (§1) Peritoneal rat mast cells are collected from 250 to 300 g Wistar male rats by the following procedure. Following sacrifice, each rat is injected into the peritoneal cavity with 10 ml of ice cold HEPES-buffered salt solution (HBSS), pH 7.2, containing 5 U/ml heparin. The HBSS contains 137 mM of […], 10mM HEPES, 5mM D-glucose, 2.7 mM KCl, 0.4 mM NaH₂PO₄, 0.5 mM MgCl₂ and 1 % foetal calf serum (FCS). The abdomen is massaged gently for 2 to 3 minutes and then an incision is made in the abdomen, the buffer removed by a pipette, and the peritoneal cavity lavaged twice with ice-cold HBSS. The extract is then centrifuged at 200 rpm for 10 minutes at 20°C to collect the peritoneal mast cells. These cells are then suspended again in HBSS. A count of cells present is made using an aliquot of this suspension by staining with Kimura metachromatic stain. Typically, about 1.2 to 1.7x10⁶ mast cells are collected from each animal. The rat mast cells are then activated using a Compound 48/80 in the presence of the test aromatic and antihistamine compounds and histamine-release measured as follows. 720 µl aliquots containing 9 x 10⁴ mast cells at 37°C are added to vials containing various combinations of aromatic flavour compounds. The concentrations of tyloxapol, menthol, camphor, and eucalyptol are 0.7 %, 0.025 %, 0.015 %, and 0.0075 % respectively. The solutions are incubated for about 10 minutes before 200 µl aliquots are added to tubes containing 25 µl of Compound 48/80, 25 µl of sodium cromoglycate and/or buffer, giving a concentration of Compound 48/80 and sodium cromoglycate in the tubes of […] and 0.005 % respectively. The histamine release reactions in the tubes is terminated after 10 minutes (37°C) by adding 750 µl of ice-cold HBSS and centrifuging the resulting solution for 10 minutes at 2000 rpm at 4°C. The histamine released by stimulus and the total cell histamine content are respectively determined by assaying the supernatant liquid after acidification with 5 % trichloroacetic acid (TCA) and by disintegrating the cells in 5 % (TCA) followed by analysis by automated spectrofluoremetry. […] Eucalyptol at 0.0075 % gave a 9 % (non-significant) inhibitory effect. Menthol at 0.025 % was not effective.

[2] = system: rat peritoneal mast cells; assay: Mast cell stabilization test: induced histamine release; format: cell-based, Wistar male rats; settings: at the concentrations used: sodium cromoglycate 0.005 %, menthol 0.025 %, camphor 0.015 %, eucalyptol 0.0075 %
Protocol: as §1, with “(The net histamine release induced by compound 48/80” for “Eucalyptol”, “the concentration used (0.1 µg/ml)” for “0.0075 % gave a 9 % (non-significant) inhibitory effect. Menthol at 0.025 %”, “about three times the net histamine release induced by tyloxapol (15.07 ± 2.0 %)).” for “not effective.”

Structure (SMILES)	inhibition of histamine release ([1]; menthol at 0.025 %)	release of histamine induced by the substance [2]	inhibition at 100 µM ([1]; read-out: inhibition of Compound 48/80-induced histamine release) [%]	inhibition at 100 µM ([1]; read-out: inhibition of tyloxapol-induced histamine release) [%]	inhibitory effect on histamine release ([1]; eucalyptol at 0.0075 %, non-significant) [%]	inhibition of histamine release against Compound 48/80 and tyloxapol-induced histamine release ([1]; camphor at 0.015 %, series of five experiments) [%]
CC1CCC(C(C)C)C(O)C1 (stereo not drawn) [menthol]	not effective	did not induce release of histamine				
O=C(O)c1cc(=O)c2c(OCC(O)COc3cccc4oc(C(=O)O)cc(=O)c34)cccc2o1 [sodium cromoglycate]		did not induce release of histamine	67	152		
CC12CCC(CC1)C(C)(C)O2 [eucalyptol]		did not induce release of histamine			9	
CC12CCC(CC1=O)C2(C)C (stereo not drawn) [camphor]		did not induce release of histamine				45
